According to patent US20250019387A1 (Frontier Medicines Corporation, priority 0001, published 2025):

Target: KRAS G12C and PI3Ka (Ras-binding domain) interaction (Homo sapiens (Human), UniProt P01116, C118S/C51S/C80L/G12C)
Assay: Inhibition of KRAS G12C and PI3Ka binding (AlphaScreen)
Settings: GMPPNP-loaded KRAS G12C, 2 hours incubation with compound; read-out: PI3Ka RBD IC50
Method: Compounds were diluted in 100% DMSO and each compound concentration was spotted at 200 nl/well onto low volume, white 384 well plates. […] The KRAS GT2C was diluted in 25 mM Hepes, pH 7.4, 150 mM NaCl, 5 mMv MgCl2, 0.0100 TritonX-100 and 10 μM GMPPNP and added at 10 ul/well to compound-spotted plates resulting in a […] concentration of 2%. Plates were incubated for 2 hours. A mixture of RBD and the AlphaScreen streptavidin donor and nickel chelate acceptor beads diluted in 25 mMv Hepes, pH 7.4, 150 mMv NaCl, 5 mM MgCl2, 0.0100 TritonX-100 and 2% DMSO was then added at 10 ul/well and incubated for 60-90 minutes before the samples were read for emission at 570 nm after excitation of the donor beads at 680 nm. All incubations were performed at room temperature. […] Final assay conditions were 1.5 nM KRAS GT2C, 100 nM RBD, 1.25 ug/ml of AlphaScreen donor beads and 10 μg/ml AlphaLISA acceptor beads. IC50S were determined using nonlinear regression fit of [inhibitor]vs. response (4 parameters). […]

KRAS G12C and PI3Ka (Ras-binding domain) interaction, sequence (P01116 other isoform, or with tags, fused parts or gaps G12C/C51S/C80L/C118S): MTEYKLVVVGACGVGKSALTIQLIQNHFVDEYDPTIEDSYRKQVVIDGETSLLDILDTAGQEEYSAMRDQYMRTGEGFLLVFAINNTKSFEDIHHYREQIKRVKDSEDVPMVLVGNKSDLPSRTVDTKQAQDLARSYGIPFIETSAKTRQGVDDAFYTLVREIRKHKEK

| IC50 | SMILES |
| --- | --- |
| 10 to 100 nM | CN(c1nc(OC[C@@]23CCCN2C[C@H](F)C3)nc2c1CCN(c1cccc3cccc(Cl)c13)C2)[C@@H]1CCN(C(=O)/C=C/c2nc([C@H]3C[C@@H]3F)no2)C1 [Example 130, (E)-1-((R)-3-((7-(8-chloronaphthalen-1-yl)-2-(((2R,7aS)-2-fluorohexahydro-1H-pyrrolizin-7a-yl)methoxy)-5,6,7,8-tetrahydropyrido[3,4-d]pyrimidin-4-yl)(methyl)amino)pyrrolidin-1-yl)-3-(3-((1R,2S)-2-fluorocyclopropyl)-1,2,4-oxadiazol-5-yl)prop-2-en-1-one] |
| 10 to 100 nM | CN(CC1CN(C(=O)/C=C/c2nc([C@H]3C[C@@H]3F)no2)C1)c1nc(OC[C@@]23CCCN2C[C@H](F)C3)nc2c(F)c(-c3cccc4cccc(Cl)c34)ncc12 [Example 139, (E)-1-(3-(((7-(8-chloronaphthalen-1-yl)-8-fluoro-2-(((2R,7aS)-2-fluorotetrahydro-1H-pyrrolizin-7a(5H)-yl)methoxy)pyrido[4,3-d]pyrimidin-4-yl)(methyl)amino)methyl)azetidin-1-yl)-3-(3-((1R,2S)-2-fluorocyclopropyl)-1,2,4-oxadiazol-5-yl)prop-2-en-1-one] |

Target: KRAS G12C and cRAF (Ras-binding domain) interaction (Homo sapiens (Human), UniProt P01116, C118S/C51S/C80L/G12C)
Sequence (P01116 other isoform, or with tags, fused parts or gaps G12C/C51S/C80L/C118S): as above
Assay: Inhibition of KRAS G12C and cRAF binding (AlphaScreen)
Settings: GMPPNP-loaded KRAS G12C, 19-20 hours incubation with compound; read-out: IC50 (Inhibition of KRAS G12C and cRAF Binding)
Method in brief: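 IC50 values come from 4-parameter nonlinear regression of AlphaScreen signal (680 nm excitation, 570 nm emission). Compound plates sat 19-20 h at room temperature before RBD and donor/acceptor beads were added in Hepes pH 7.4 buffer with 150 mM NaCl, 5 mM MgCl2, 2% DMSO for 60-90 min; biotin-AviTag-GST replaced RBD to flag assay-technology interferers.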

| SMILES | IC50 |
| --- | --- |
| Cc1nc(C)c(F)c(/C=C/C(=O)N2CC[C@@H](N(C)c3nc(OC[C@@]45CCCN4C[C@H](F)C5)nc4c(F)c(-c5cccc6ccc(F)c(F)c56)ncc34)C2)n1 [Example 294, (E)-1-((R)-3-((7-(7,8-difluoronaphthalen-1-yl)-8-fluoro-2-(((2R,7aS)-2-fluorotetrahydro-1H-pyrrolizin-7a(5H)-yl)methoxy)pyrido[4,3-d]pyrimidin-4-yl)(methyl)amino)pyrrolidin-1-yl)-3-(5-fluoro-2,6-dimethylpyrimidin-4-yl)prop-2-en-1-one] | 100 to 500 nM |
| C=CC(=O)N1CC[C@@H](N(C)c2nc(OC[C@@]34CCCN3C[C@H](F)C4)nc3c(F)c(-c4cccc5cccc(C#N)c45)ncc23)C1 [Example 297, 8-(4-(((R)-1-acryloylpyrrolidin-3-yl)(methyl)amino)-8-fluoro-2-(((2R,7aS)-2-fluorotetrahydro-1H-pyrrolizin-7a(5H)-yl)methoxy)pyrido[4,3-d]pyrimidin-7-yl)-1-naphthonitrile] | 100 to 500 nM |
| C#Cc1c(F)ccc2cccc(-c3ncc4c(N(C)[C@@H]5CCN(C(=O)C=C)C5)nc(OCC56CCCN5CCC6)nc4c3F)c12 [Example 303, (R)-1-(3-((7-(8-ethynyl-7-fluoronaphthalen-1-yl)-8-fluoro-2-((tetrahydro-1H-pyrrolizin-7a(5H)-yl)methoxy)pyrido[4,3-d]pyrimidin-4-yl)(methyl)amino)pyrrolidin-1-yl)prop-2-en-1-one] | < 10 nM |
| C=CC(=O)N1CC[C@@H](N(C)c2nc(OC[C@@]34CCCN3C[C@H](F)C4)nc3c(F)c(-c4cccc5cccc(C6CC6)c45)ncc23)C1 [Example 304, 1-((R)-3-((7-(8-cyclopropylnaphthalen-1-yl)-8-fluoro-2-(((2R,7aS)-2-fluorotetrahydro-1H-pyrrolizin-7a(5H)-yl)methoxy)pyrido[4,3-d]pyrimidin-4-yl)(methyl)amino)pyrrolidin-1-yl)prop-2-en-1-one] | > 500 nM |
| C#Cc1c(F)ccc2cccc(-c3ncc4c(N(C)[C@@H]5CCN(C(=O)C=C)C5)nc(OC[C@]56CCCN5C[C@H](F)C6)nc4c3F)c12 [Example 305, 1-((R)-3-((7-(8-ethynyl-7-fluoronaphthalen-1-yl)-8-fluoro-2-(((2R,7aR)-2-fluorotetrahydro-1H-pyrrolizin-7a(5H)-yl)methoxy)pyrido[4,3-d]pyrimidin-4-yl)(methyl)amino)pyrrolidin-1-yl)prop-2-en-1-one] | 10 to 100 nM |
| C=CC(=O)N1CC[C@@H](N(C)c2nc(OC[C@@]34CCCN3C[C@H](F)C4)nc3c(F)c(-c4cccc5cccc(C#CC)c45)ncc23)C1 [Example 306, 1-((R)-3-((8-fluoro-2-(((2R,7aS)-2-fluorotetrahydro-1H-pyrrolizin-7a(5H)-yl)methoxy)-7-(8-(prop-1-yn-1-yl)naphthalen-1-yl)pyrido[4,3-d]pyrimidin-4-yl)(methyl)amino)pyrrolidin-1-yl)prop-2-en-1-one] | > 500 nM |
| C=CC(=O)N1CC[C@@H](N(C)c2nc(OC[C@@]34CCCN3C[C@H](F)C4)nc3c(F)c(-c4cccc5cccc(C(F)F)c45)ncc23)C1 [Example 307, 1-((R)-3-((7-(8-(difluoromethyl)naphthalen-1-yl)-8-fluoro-2-(((2R,7aS)-2-fluorohexahydro-1H-pyrrolizin-7a-yl)methoxy)pyrido[4,3-d]pyrimidin-4-yl)(methyl)amino)pyrrolidin-1-yl)prop-2-en-1-one] | > 500 nM |

Continued, values first:

| IC50 | SMILES |
| --- | --- |
| 10 to 100 nM | CN(c1nc(OC[C@@]23CCCN2C[C@H](F)C3)nc2c1CCN(c1cccc3cccc(Cl)c13)C2)[C@@H]1CCN(C(=O)/C=C/c2nc([C@H]3C[C@@H]3F)no2)C1 [Example 130, (E)-1-((R)-3-((7-(8-chloronaphthalen-1-yl)-2-(((2R,7aS)-2-fluorohexahydro-1H-pyrrolizin-7a-yl)methoxy)-5,6,7,8-tetrahydropyrido[3,4-d]pyrimidin-4-yl)(methyl)amino)pyrrolidin-1-yl)-3-(3-((1R,2S)-2-fluorocyclopropyl)-1,2,4-oxadiazol-5-yl)prop-2-en-1-one] |
| 10 to 100 nM | CN(CC1CN(C(=O)/C=C/c2nc([C@H]3C[C@@H]3F)no2)C1)c1nc(OC[C@@]23CCCN2C[C@H](F)C3)nc2c(F)c(-c3cccc4cccc(Cl)c34)ncc12 [Example 139, (E)-1-(3-(((7-(8-chloronaphthalen-1-yl)-8-fluoro-2-(((2R,7aS)-2-fluorotetrahydro-1H-pyrrolizin-7a(5H)-yl)methoxy)pyrido[4,3-d]pyrimidin-4-yl)(methyl)amino)methyl)azetidin-1-yl)-3-(3-((1R,2S)-2-fluorocyclopropyl)-1,2,4-oxadiazol-5-yl)prop-2-en-1-one] |
| 10 to 100 nM | Cc1ncc(F)c(/C=C/C(=O)N2CC[C@@H](N(C)c3nc(OC[C@@]45CCCN4C[C@H](F)C5)nc4c(F)c(-c5cccc6ccc(F)c(F)c56)ncc34)C2)n1 [Example 295, (E)-1-((R)-3-((7-(7,8-difluoronaphthalen-1-yl)-8-fluoro-2-(((2R,7aS)-2-fluorotetrahydro-1H-pyrrolizin-7a(5H)-yl)methoxy)pyrido[4,3-d]pyrimidin-4-yl)(methyl)amino)pyrrolidin-1-yl)-3-(5-fluoro-2-methylpyrimidin-4-yl)prop-2-en-1-one] |
| 10 to 100 nM | Cc1cc(/C=C/C(=O)N2CC[C@@H](Nc3nc(OC[C@@]45CCCN4C[C@H](F)C5)nc4c(F)c(-c5cccc6ccc(F)c(F)c56)ncc34)C2)nc(C)n1 [Example 296, (E)-1-((R)-3-((7-(7,8-difluoronaphthalen-1-yl)-8-fluoro-2-(((2R,7aS)-2-fluorohexahydro-1H-pyrrolizin-7a-yl)methoxy)pyrido[4,3-d]pyrimidin-4-yl)amino)pyrrolidin-1-yl)-3-(2,6-dimethylpyrimidin-4-yl)prop-2-en-1-one] |
| < 10 nM | C#Cc1c(F)ccc2cccc(-c3ncc4c(N(C)[C@@H]5CCN(C(=O)C=C6CN(C)C6)C5)nc(OC[C@@]56CCCN5C[C@H](F)C6)nc4c3F)c12 [Example 298, 1-((R)-3-((7-(8-ethynyl-7-fluoronaphthalen-1-yl)-8-fluoro-2-(((2R,7aS)-2-fluorotetrahydro-1H-pyrrolizin-7a(5H)-yl)methoxy)pyrido[4,3-d]pyrimidin-4-yl)(methyl)amino)pyrrolidin-1-yl)-2-(1-methylazetidin-3-ylidene)ethan-1-one] |
| < 10 nM | CN1CC(=CC(=O)N2CC[C@@H](N(C)c3nc(OC[C@@]45CCCN4C[C@H](F)C5)nc4c(F)c(-c5cccc6ccc(F)c(F)c56)ncc34)C2)C1 [Example 299, 1-((R)-3-((7-(7,8-difluoronaphthalen-1-yl)-8-fluoro-2-(((2R,7aS)-2-fluorotetrahydro-1H-pyrrolizin-7a(5H)-yl)methoxy)pyrido[4,3-d]pyrimidin-4-yl)(methyl)amino)pyrrolidin-1-yl)-2-(1-methylazetidin-3-ylidene)ethan-1-one] |
| 10 to 100 nM | CN1CC(=CC(=O)N2CC[C@@H](N(C)c3nc(OC[C@@]45CCCN4C[C@H](F)C5)nc4c(F)c(-c5cccc6ccc(F)c(Cl)c56)ncc34)C2)C1 [Example 300, 1-((R)-3-((7-(8-chloro-7-fluoronaphthalen-1-yl)-8-fluoro-2-(((2R,7aS)-2-fluorotetrahydro-1H-pyrrolizin-7a(5H)-yl)methoxy)pyrido[4,3-d]pyrimidin-4-yl)(methyl)amino)pyrrolidin-1-yl)-2-(1-methylazetidin-3-ylidene)ethan-1-one] |
| 10 to 100 nM | C#Cc1c(F)ccc2cccc(-c3ncc4c(N(C)[C@@H]5CCN(C(=O)/C=C/c6nc(C)ncc6F)C5)nc(OC[C@@]56CCCN5C[C@H](F)C6)nc4c3F)c12 [Example 301, (E)-1-((R)-3-((7-(8-ethynyl-7-fluoronaphthalen-1-yl)-8-fluoro-2-(((2R,7aS)-2-fluorohexahydro-1H-pyrrolizin-7a-yl)methoxy)pyrido[4,3-d]pyrimidin-4-yl)(methyl)amino)pyrrolidin-1-yl)-3-(5-fluoro-2-methylpyrimidin-4-yl)prop-2-en-1-one] |
| 10 to 100 nM | C#Cc1c(F)ccc2cccc(-c3ncc4c(N(C)[C@@H]5CCN(C(=O)/C=C/c6nc(C)nc(C)c6F)C5)nc(OC[C@@]56CCCN5C[C@H](F)C6)nc4c3F)c12 [Example 302, (E)-1-((R)-3-((7-(8-ethynyl-7-fluoronaphthalen-1-yl)-8-fluoro-2-(((2R,7aS)-2-fluorotetrahydro-1H-pyrrolizin-7a(5H)-yl)methoxy)pyrido[4,3-d]pyrimidin-4-yl)(methyl)amino)pyrrolidin-1-yl)-3-(5-fluoro-2,6-dimethylpyrimidin-4-yl)prop-2-en-1-one] |

Same assay, conditions: additional exemplary compounds; KRAS G12C and cRAF binding; read-out: RAF1 RBD IC50

| IC50 | SMILES |
| --- | --- |
| 10 to 100 nM | C=CC(=O)N1C[C@H](F)[C@@H](N(C)c2nc(OC[C@@]34CCCN3C[C@H](F)C4)nc3c(F)c(-c4cccc5cccc(Cl)c45)ncc23)C1 [drawing 2208] |
